Data set [1] relates to Kunjin virus. The data set can be described thus: Antiviral activity against Kunjin virus. Format: functional, organism-based. As to conditions: West Nile virus.
Data set [2] concerns dengue virus type 4. Kind of data set: Antiviral activity against Dengue virus 4 infected in syrian hamster BHK-21 cells assessed as inhibition of plaque formation pretreated with compound for 45 mins followed by viral infection for 24 hrs. As to conditions: BHK-21, 24.75 h, time 1485 min. The format is functional.
Data set [3] concerns dengue virus type 2. The data set can be described thus: Antiviral activity against Dengue virus 2 infected in syrian hamster BHK-21 cells assessed as inhibition of plaque formation pretreated with compound for 45 mins followed by viral infection for 24 hrs. Format: functional. As to conditions: BHK-21, 24.75 h, time 1485 min.
Data set [4] has as its system dengue virus type 3. Kind of data set: Antiviral activity against Dengue virus 3 infected in syrian hamster BHK-21 cells assessed as inhibition of plaque formation pretreated with compound for 45 mins followed by viral infection for 24 hrs. The format is functional. The following applies: BHK-21, 24.75 h, time 1485 min.
Data set [5] deals with dengue virus type 1. Kind of data set: Antiviral activity against Dengue virus 1 infected in syrian hamster BHK-21 cells assessed as inhibition of plaque formation pretreated with compound for 45 mins followed by viral infection for 24 hrs. Format: functional. The following applies: BHK-21, 24.75 h, time 1485 min.
A short description of data set [6]: Cytotoxicity against mouse BaF3 cells expressing BCR-ABL assessed as cell viability. Format: toxicity, cell-based.

This note sets out measurements from ChEMBL document CHEMBL6134836, “Medicinal Chemistry: A Key Driver in Achieving the Global Sustainable Development Goals” (J Med Chem, 2025).

Molecules are shown by their SMILES. pEC50, pIC50: −log10 of the molar value.

Compound `NC(=O)c1cccc(-c2cc(Nc3ccc(OC(F)(F)F)cc3)ncn2)c1` showed a pEC50 in data set [1] of under 4.70. The IC90 in data set [2], in data set [3], in data set [4] and in data set [5] was 20 µM each time. Moreover, in data set [6], the pIC50 was under 5.00.
